Consider 17 molecules from ChEMBL document CHEMBL4052716, “Discovery and development of a novel class of phenoxyacetyl amides as highly potent TRPM8 agonists for use as cooling agents” (Bioorg Med Chem Lett, 2017).

Data set [1] addresses T1, Transient receptor potential cation channel subfamily M member 8 (Homo sapiens, UniProt Q7Z2W7). The data set can be described thus: Agonist activity at human TRPM8 expressed in HEK293 cells assessed as increase in intracellular calcium level after 15 mins by Fluo-3-AM dye-based fluorescence assay. The format is cell-based. Particulars: read-out: EC50. A general note: A change in cytosolic calcium serves as a functional read-out for many receptors and channels.
Target sequence in this assay (Q7Z2W7 whole entry): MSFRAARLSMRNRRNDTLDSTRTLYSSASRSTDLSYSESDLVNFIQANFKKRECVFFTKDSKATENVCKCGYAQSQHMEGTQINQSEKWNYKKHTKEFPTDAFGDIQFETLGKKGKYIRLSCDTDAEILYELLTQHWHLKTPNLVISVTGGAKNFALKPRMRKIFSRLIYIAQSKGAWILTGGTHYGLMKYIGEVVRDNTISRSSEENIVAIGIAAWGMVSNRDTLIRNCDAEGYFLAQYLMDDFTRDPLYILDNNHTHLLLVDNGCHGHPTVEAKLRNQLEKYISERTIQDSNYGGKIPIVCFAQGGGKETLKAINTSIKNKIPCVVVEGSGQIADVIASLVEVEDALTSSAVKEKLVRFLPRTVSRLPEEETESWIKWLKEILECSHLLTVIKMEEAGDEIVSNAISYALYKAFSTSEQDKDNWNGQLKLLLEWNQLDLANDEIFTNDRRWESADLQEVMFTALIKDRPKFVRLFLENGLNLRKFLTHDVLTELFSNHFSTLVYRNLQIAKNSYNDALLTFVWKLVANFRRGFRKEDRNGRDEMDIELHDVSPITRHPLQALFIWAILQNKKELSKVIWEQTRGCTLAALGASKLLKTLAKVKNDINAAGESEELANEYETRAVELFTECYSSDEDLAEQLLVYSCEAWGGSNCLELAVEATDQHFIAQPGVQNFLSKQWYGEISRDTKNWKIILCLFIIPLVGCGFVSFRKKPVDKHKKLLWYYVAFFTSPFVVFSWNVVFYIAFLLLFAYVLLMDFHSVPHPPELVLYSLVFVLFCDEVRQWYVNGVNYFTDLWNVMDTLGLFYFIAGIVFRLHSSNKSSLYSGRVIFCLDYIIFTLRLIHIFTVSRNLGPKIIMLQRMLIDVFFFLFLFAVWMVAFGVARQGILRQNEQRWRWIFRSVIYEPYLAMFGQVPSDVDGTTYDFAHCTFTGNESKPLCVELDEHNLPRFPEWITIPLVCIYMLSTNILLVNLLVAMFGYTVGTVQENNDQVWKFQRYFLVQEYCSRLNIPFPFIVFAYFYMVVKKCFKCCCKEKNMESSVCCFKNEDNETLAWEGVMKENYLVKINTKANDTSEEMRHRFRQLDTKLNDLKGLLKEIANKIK

Data set [2] deals with T1, Transient receptor potential cation channel subfamily M member 8. The data set can be described thus: Potency index, ratio of WS-3 EC50 to compound EC50 for human TRPM8 receptor.
Target sequence in this assay (Q7Z2W7 whole entry, looked up): as the sequence (Q7Z2W7 whole entry) above
Data set [3] can be described thus: Thermodynamic solubility of the compound in pH 7.1 phosphoric buffer. The format is physicochemical. Particulars: read-out: Therm_solubility.
Data set [4] in a line: Permeability of the compound assessed as drug transport by PAMPA. The format is physicochemical. In general terms: In PAMPA a lipid-coated filter parts donor from acceptor wells.
For data set [5], the system named is Homo sapiens. Description: In vivo agonist activity at human TRPM8 in trained human subjects assessed as concentration required to deliver cooling sensation equivalent to 45 uM WS-3 by measuring cooling intensity. The format is functional.
Data set [6] has as its system Homo sapiens. The data set can be described thus: In vivo agonist activity at human TRPM8 in trained human subjects assessed as time duration of perceived cooling effect at 45 uM dosed as aqueous solution. The format is functional.
Data set [7] is described as follows: Stability of the compound in pH 2.8 citric acid assessed as compound remaining after heating at 100 degC for 24 hrs. Particulars: read-out: Stability. The format is physicochemical.
A short description of data set [8]: Stability of the compound in pH 4.0 citric acid assessed as compound remaining after heating at 100 degC for 24 hrs. Particulars: read-out: Stability. The format is physicochemical.
A short description of data set [9]: Stability of the compound in pH 7.1 phosphoric acid assessed as compound remaining after heating at 100 degC for 24 hrs. Particulars: read-out: Stability. The format is physicochemical.
The species entered for data set [10] is Homo sapiens. Description: Induction of off-taste response in rained human subjects assessed as induction of bitterness during cooling sensation study.
The species named for data set [11] is Homo sapiens. The data set can be described thus: Induction of off-taste response in rained human subjects during cooling sensation study.
Data set [12] deals with Homo sapiens. The data set can be described thus: In vivo agonist activity at human TRPM8 in trained human subjects assessed as time duration of perceived cooling effect at 3 uM dosed as aqueous solution. The format is functional.

Converted amounts (≈) assume the structure as drawn. The source made the active and inactive calls. The calls are words filed in the database; no cut-off is given here.

One may read the EC50 as the concentration at which the effect is half-maximal. `O=C(COc1ccc2c(c1)CCC2)N(Cc1cccs1)c1ccn[nH]1`: in data set [1], the EC50 was 0.001 nM. Moreover, in data set [2], the Ratio EC50 is over 1e+06. Further, the solubility thermodynamic in data set [3] was determined as 26 µM (≈ 9.19 µg/mL). Moreover, the Drug transport in data set [4] came out at 5%. Moreover, the Activity in [5] is 3 µM.

As for `CCNC(=O)[C@@H]1C[C@H](C)CC[C@H]1C(C)C`, the Time in data set [6] is 25 min.

As for `Cc1ccc(OCC(=O)N(Cc2cccs2)c2ccon2)cc1`, the EC50 in data set [1] is 2 nM. The Ratio EC50 in data set [2] turned out to be 3440. Moreover, the remaining at 24 h in data set [7] is 90.8%; in data set [8], 78.1%; in data set [9], 0.5%.

For `CCN(Cc1cccs1)C(=O)c1cc2cc(C)ccc2o1`, in [1], the 50% effective concentration (EC50) came out at 120 nM. Moreover, the Ratio EC50 in data set [2] is 42. Also, in data set [3], the solubility thermodynamic turned out to be 27 µM (≈ 8.08 µg/mL). In addition, the Drug transport in [4] was determined as 2%. Also, in data set [5], the Activity amounted to 10 µM.

With `Cc1ccc(OCC(=O)N(Cc2cccs2)c2ncco2)cc1`, the EC50 in [1] was found to be 0.3 nM. Besides, the Ratio EC50 in [2] worked out at 120000. The remaining at 24 h in data set [7] was 14.9%; in data set [8], 73.7%; in data set [9] it was 0.1%.

Turning to `Cc1ccc(OCC(=O)N(Cc2cccs2)c2ccnn2C)cc1`, the EC50 in data set [1] was determined as 422 nM. In data set [2], the Ratio EC50 is 14. The outcome in data set [5] was inactive. The Activity entry in [10] is reported as “Toxic”.

For the molecule `CCN(Cc1cccs1)C(=O)COc1ccc(C)cc1`, the EC50 in data set [1] was determined as 8 nM. Moreover, the Ratio EC50 in data set [2] is 620. For the same molecule, the solubility thermodynamic in [3] turned out to be 545 µM (≈ 158 µg/mL). Also, the Drug transport in [4] is listed as 12%. In [5], the Activity was 5 µM.

Take `CCN(Cc1cccs1)C(=O)COc1ccc2c(c1)CCC2`: in data set [1], the EC50 turned out to be 0.8 nM. Also, the Ratio EC50 in [2] is 7680. Also, in data set [3], the solubility thermodynamic worked out at 85 µM (≈ 26.8 µg/mL). Moreover, in [4], the Drug transport was 3%. Moreover, the Activity in data set [5] is 3 µM.

`CCN(Cc1cccs1)C(=O)COc1ccc2c(c1)COC2`: in [1], the EC50 worked out at 61 nM. In addition, the Ratio EC50 in [2] was 58. Also, in data set [3], the solubility thermodynamic was 571 µM (≈ 181 µg/mL). The Drug transport in data set [4] amounted to 33%. For the same molecule, the Activity in data set [5] amounted to 5 µM.

Consider `Cc1ccc(OCC(=O)N(Cc2cccs2)c2ccn[nH]2)cc1`, for which, in data set [1], the EC50 was determined as 0.2 nM. Besides, the Ratio EC50 in data set [2] stood at 35800. Further, the solubility thermodynamic in data set [3] was determined as 189 µM (≈ 61.9 µg/mL). Also, the Drug transport in [4] turned out to be 10%. Also, the figures for the Activity in [5] and in data set [11] were 3 µM and “Non-Toxic”, respectively. Also, the Time in data set [12] was 60 min.

Turning to `CCN(Cc1ccoc1)C(=O)COc1ccc(C)cc1`, in [1], the EC50 stood at 136 nM. For the same molecule, the Ratio EC50 in [2] turned out to be 32. Moreover, the Activity in data set [5] amounted to 5 µM.

As to `CCN(Cc1ccsc1)C(=O)COc1ccc(C)cc1`, the EC50 in [1] was determined as 88 nM. Moreover, the Ratio EC50 in data set [2] is 49. Also, the Activity in data set [5] turned out to be 5 µM.

Regarding `Cc1ccc(/C=C/C(=O)N(Cc2cccs2)c2ccn[nH]2)cc1`, in [1], the EC50 worked out at 0.004 nM. In addition, the Ratio EC50 in [2] is over 1e+06. Further, in [3], the solubility thermodynamic was found to be 3.7 µM (≈ 1.2 µg/mL). Moreover, the Drug transport in [4] stood at 5%. In addition, the Activity in data set [5] was 3 µM.

`CCN(Cc1cccs1)C(=O)COc1cc(C)ccc1O`: the EC50 in data set [1] came to 24 nM. In addition, in data set [2], the Ratio EC50 is 180. In [5], the Activity is 5 µM.

For `CCN(Cc1cccs1)C(=O)c1cc2cc(OC)ccc2o1`, the concentration giving a half-maximal response (EC50) in data set [1] was determined as 80 nM. Moreover, in [2], the Ratio EC50 was 164. In addition, the solubility thermodynamic in data set [3] was found to be 49 µM (≈ 15.5 µg/mL). The Drug transport in data set [4] was 1%. Besides, in data set [5], the Activity was 5 µM.

As to `Cc1ccc(OCC(=O)N(Cc2cccs2)c2ccccc2)cc1`, the EC50 in [1] came out at 23 nM. In addition, the Ratio EC50 in data set [2] is 197. Also, the Activity in data set [5] came to 15 µM.

As to `CCN(Cc1cccs1)C(=O)/C=C/c1ccc(C)cc1`, the EC50 in data set [1] amounted to 2 nM. Besides, the Ratio EC50 in [2] stood at 2340. Also, in [5], the Activity came to 3 µM.
